Data: patent US20220395500A1, “SMALL MOLECULE ACTIVATORS OF INTERFERON REGULATORY FACTOR 3 AND METHODS OF USE THEREOF” (Neuralexo, Inc., priority 2020, published 2022)
Read-outs that look alike come from different tables or passages of the source.

Experiments:
J774-Dual cytotoxicity = assay type: cell-based, mouse; settings: mouse, J774-Dual cells, read-out: J774 cytotox CC50
Procedure, shortened: (§1)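 CC50 derived from 8-point concentration series in mouse J774-Dual reporter cells, with viability read by CellTiter-Glo in the same plate. Run in parallel with EC50 and ISRE:NFκB ratio determination for cross-species confirmation.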

[1] = system: NF-κB-SEAP reporter in THP1-Dual cells; test: THP1-Dual NF-κB-SEAP reporter counterscreen; assay type: cell-based, human; settings: Homo sapiens, THP1-Dual, read-out: THP1 NFkB EC50
Procedure: THP1 Dual (InvivoGen) cell suspensions were cultured in RPMI 1640 (Hyclone, Logan, Utah) supplemented with 10% fetal bovine serum (Hyclone), 100 U/mL Normocin (Invivogen), and 50 U/mL PenStrep (Gibco, Dublin, Ireland) between a density of 7·10^5-2·10^6 cells/mL. Every other passage, media was supplemented with 5 U/mL Blasticidin and 100 U/mL Zeocin to maintain the expression constructs. White, flat-bottom 384-well plates (Greiner, Kremsmunster, Austria, 781080) were seeded with 2.5·10^4 cells/well in a total of 50 μL media containing 5 ng/mL phorbolmyristic acid (PMA) using a Matrix WellMate (Thermo Scientific) dispenser. After 48 hours of incubation at 37° C., media was removed using a BioTek ELx405 CW plate washer set to aspirate and wash each well three times with 65 μL 1×PBS. Plates were reloaded with 50 μL media without PMA and treatments added. Lipopolysaccharide in dimethylsulfoxide (DMSO) was transferred to control wells using a HP D300 microdispenser to a final concentration of 313 ng/mL. Compounds from chemical library plates were copied using a Sciclone (Caliper LifeSciences) mounted with a 384-pin transfer tool to obtain a final concentration of 10 μM. After incubation with treatments for 24 hours, 10 μL of supernatant media from each well was transferred into a white, flat-bottom 384-well plate for luminescence readout and a black-walled, clear flat-bottom 384-well plate for absorbance readout.
Specifically, to enable screening of novel chemical entities (NCEs) in a larger screening effort, a robust high-throughput cell-based assay system for primary hit identification of ISRE activators based on the above-mentioned target validation was desired. Human ISRE activity was verified using a THP-1 monocyte line containing the NF-κB-SEAP and IRF-Lucia luciferase dual reporter (THP1-Dual; Invivogen) that features two reporter genes, SEAP (secreted embryonic alkaline phosphatase) and Lucia luciferase, thereby enabling the simultaneous study of the NF-κB and IRF signalling pathways. The Lucia luciferase reporter is under the control of an ISG54 (interferon-stimulated gene) minimal promoter in conjunction with five IFN-stimulated response elements. The SEAP gene is driven by an IFN-β minimal promoter fused to five copies of the NF-κB consensus transcriptional response element and three copies of the c-Rel binding site. Both reporter proteins are readily measurable in the cell culture supernatant when using QUANTI-LUC™ and QUANTI-Blue SEAP detection reagents.
Using the experimental design and data analysis outlined above, optimized assay conditions were obtained. The responsiveness of the human THP-1 Dual cell line was evaluated in an array of assay conditions to obtain sensitive and reproducible results for the activation of IRF and NF-κB reporters. An optimal plating density and differentiation protocol for these cells was established in a 384-well format. All transfer steps are fully automated using high throughput robotic equipment. Briefly, cells are seeded in differentiation medium using a Matrix WellMate fitted with the WellMate Stacker (Thermo Scientific) and incubated at 37° C. with 5% CO2 for 48 h. Following differentiation, cells are washed using a BioTek ELx405 Select CW plate washer and growth medium added with the Matrix WellMate. Programmed control treatments are added to wells using a D300 digital dispenser fitted with T8+ dispense heads (Hewlett Packard) designed to dispense nanoliter quantities of material. Compounds from library plates are added using a pin tool fitted to a Sciclone ALH 3000 Workstation (Caliper Life Sciences) programmed with Maestro v4.4. After treatment, plates are returned to incubators for 24 hours. To measure reporter expression, supernatant is collected using the Sciclone and dispensed into 2 plates: 1) a white 384-well assay plate for Lucia luminescence measurements and 2) a clear-bottom black 384-well assay plate for SEAP absorbance measurements. […]

[2] = system: NF-κB-SEAP reporter in J774-Dual cells; test: J774-Dual NF-κB-SEAP reporter assay; assay type: cell-based, mouse; settings: for EC50: Mus musculus, read-out: J774 NFkB EC50
Procedure: (§2) First, optimal assay conditions and assay quality in 384-well format were determined. As mentioned, the mouse macrophage J774 cell line (J774-Dual, InvivoGen) stably transfected with the same inducible reporters described above (e.g., IRF-Lucia luciferase and NF-κB-SEAP) was used. The responsiveness of the J774-Dual cell line was investigated in an array of assay conditions to obtain sensitive and reproducible results for the activation of the IRF and NF-κB reporters. An optimal plating density and conditions for these cells was established for these cells in a 384-well format. Assay work-flow is similar to that discussed above for the THP1-Dual assay without a need for cell differentiation. Thus, cells are seeded directly in growth medium and incubated at 37° C. in a 5% C02 incubator for 24 hours prior to the programmed treatments being added as described herein.
(§3) The primary high throughput screen used the HTS platform of human THP1 monocyte cells containing the IRF-Lucia luciferase and NFκB-SEAP (secreted embryonic alkaline phosphatase) dual reporter (THP1-Dual, Invivogen), enabling the simultaneous study of the IRF and NFκB signaling pathways respectively. As discussed, the Lucia luciferase reporter gene is under the control of an ISG54 (interferon-stimulated gene) minimal promoter in conjunction with five interferon-stimulated response elements (ISRE). The SEAP gene is driven by an IFNβ minimal promoter fused to five copies of the NFκB consensus transcriptional response element and three copies of the c-Rel binding site. Both IRF-Lucia luciferase and NFκB-SEAP reporter proteins are secreted and readily measurable in the cell culture supernatant when using QUANTI-Luc™ and QUANTI-Blue™ detection reagents, respectively. Identified “hits” were confirmed in a secondary screen with an 8-point dose response curve. Hits were further screened for activity in the mouse using the mouse J774 macrophage-like cell line containing the identical reporter constructs (J774-Dual, Invivogen).
(§4) The OTRADI Small Molecule Library of approximately 246,000 diverse compounds (see below for description) was screened using the THP1-Dual based HTS platform described above. All transfer steps in the screen are fully automated, thus reducing variability. Primary screening included a single data point or dose for each molecule. After data normalization was applied for each assay run, “hit” selection was performed on the plates that pass the quality control (QC) criterion. Hits were defined as samples having values above the activity cutoff determined based on noise level of the assay to reduce false positive rates. In the pilot study discussed above this activity value was >3σ above the ISRE mean with the added criteria of NFκB activation being lower than […] from the mean to identify IRF selective compounds. The ratio of ISRE:NFκB activity was also calculated as a selectivity index for prioritizing hit selection. Primary hits underwent secondary screening to determine the 50% effective concentration (EC50) and 50% cytotoxic concentration (CC50) of these agents using an 8-point dose-response curve in the human THP1-Dual cells. Cytotoxicity was measured in the plate using Cell Titer Glo (Promega). Identified candidate compounds were further screened (orthogonal screen) for cross species activity in the validated mouse J774-Dual assay using an 8-point dose-response format to determine EC50 and CC50 values as well as ISRE:NFκB ratios. A general process flow for the experimental design laid out above is depicted at FIG. 12.

[3] = system: IRF-Lucia luciferase reporter (ISRE) in THP1-Dual cells; test: THP1-Dual IRF-Lucia luciferase reporter assay (ISRE activation); assay type: cell-based, human; settings: for EC50: Homo sapiens, THP1-Dual, read-out: THP1 IRF EC50
Procedure, shortened: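 Supernatant luminescence from the ISG54/ISRE-driven Lucia reporter was measured after 24 h exposure to 10 μM compound (LPS 313 ng/mL in control wells).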

[4] = THP1-Dual cytotoxicity (Cell Titer Glo, ATP); assay type: cell-based, human; settings: human, THP1-Dual cells, read-out: Thp1 cytotox CC50
Procedure, shortened: (§5)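 CC50, the concentration killing half the cells, was derived from ATP-dependent CellTiter-Glo luminescence. Cells were THP1-Dual (human) and compound was tested as an 8-point dose-response series, with viability read in the same plate.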

[5] = system: IRF-Lucia luciferase reporter (ISRE) in J774-Dual cells; test: J774-Dual IRF-Lucia luciferase reporter assay (ISRE activation); assay type: cell-based, mouse; settings: for EC50: Mus musculus, read-out: J774 IRF EC50
Procedure: as §2, §3, §4

THP1-Dual cells = test: THP1-Dual cytotoxicity (Cell Titer Glo, ATP); assay type: cell-based, human; settings: Human Reporter Cell Line; read-out: Thp1 cytotox CC50
Procedure, shortened: as §5

J774-Dual cells = test: J774-Dual cytotoxicity; assay type: cell-based, mouse; settings: Mouse Reporter Cell Line; read-out: J774 cytotox CC50
Procedure, shortened: as §1

[6] = Human Reporter Cell Line, 8-point dose response
[7] = J774, Mouse Reporter Cell Line, 8-point dose response
[8] = J774, Mouse Reporter Cell Line J774

Structure (SMILES) | EC50 [3, 6] [µM] | EC50 ([3]; Human Reporter Cell Line THP1) [µM] | CC50 (J774-Dual cytotoxicity; Mouse Reporter Cell Line) [µM] | EC50 ([1]; Human Reporter Cell Line THP1) [µM] | CC50 (J774-Dual cytotoxicity; Mouse Reporter Cell Line J774) [µM] | CC50 ([4]; Human Reporter Cell Line THP1) [µM] | other results
CCCCOc1nc(N)c2c(n1)N(Cc1cccc(CN3CCCC3)c1)CC(=O)N2 [NA-63] | – | – | 73.9 | – | – | – | EC50 [1, 6]: 2.94 µM; EC50 [2, 7]: 2.77 µM
Cc1ccc(C(=O)Nc2cc(-c3nc4cc(C(C)C)ccc4o3)ccc2C)cc1C [ND-103] | – | – | – | 25 | – | – | EC50 [2, 8]: 9.17 µM
O=C(Nc1ccc(N2CCN(C(=O)c3cccs3)CC2)cc1)c1ccc(OCc2ccccc2)cn1 [NA-60] | 2.23 | – | – | – | – | – | EC50 [1, 6]: 2.27 µM; CC50 ([4]; Human Reporter Cell Line): 23 µM; J774 IRF % activation at peak ([5]; Mouse Reporter Cell Line): 33.91%; EC50 [5, 7]: 1.77 µM
O=C(Nc1ccc(N2CCN(C(=O)c3ccccc3Cl)CC2)cc1)c1ccc(OCc2ccccc2)cc1 [NA-50] | ~2.5 | – | > 25 | – | – | – | CC50 (THP1-Dual cells): 13.1 µM
COc1ccc(C(=O)Nc2cc(-c3nc4ccccc4s3)ccc2C)cc1OC [ND-66] | – | – | – | ~0.66 | > 25 | 17.9 | J774 IRF % activation at peak ([5]; Mouse Reporter Cell Line J774, at peak): ~32.86%; EC50 [5, 8]: ~28.6 µM
O=C(Nc1ccc(N2CCN(C(=O)c3ccccc3Cl)CC2)cc1)c1ccc(OCc2ccccc2)cc1 [NA-49] | – | – | – | – | – | – | CC50 (J774-Dual cells): > 25 µM; CC50 (THP1-Dual cells): 27.9 µM
COc1cccc2c1C(=O)c1c(O)c3c(c(O)c1C2=O)C[C@@](O)(C(C)=O)C[C@@H]3O[C@H]1C[C@H](N)[C@H](O)[C@H](C)O1 [OTR-0000353-001 (Daunorubicin), Daunorubicin, reference compound] | – | – | – | – | – | – | Average ISRE/NFκB (Range) ([3]; human THP1 pilot screen, 10 μM, 3 screens): 0.7 (0.2-1.0); Average ISRE % Activation ([3]; human THP1 pilot screen, 10 μM, 24 hours, percent of LPS activation signal +/− SD, 3 screens): 4.0 +/− 1.8%; NF-κB activation in J774 screen ([2]; J774-Dual pilot screen): high NF-κB activity; Average ISRE/NFκB (Range) ([5]; mouse J774-Dual pilot screen, 3 screens): 0.1 (0.09-0.18); Average ISRE % Activation ([5]; mouse J774-Dual pilot screen, percent of LPS activation signal +/− SD, 3 screens): 5.4 +/− 1.6%; ISRE activation in both THP1-Dual and J774-Dual screens ([5]; pilot screens): cross-species ISRE activity
COc1ccc(NC(=O)c2cc(NC(=O)c3cccs3)ccc2N2CCOCC2)cc1 [NB-14] | – | 6.9 | – | – | > 25 | > 25 | EC50 [2, 8]: 11.3 µM
CCCN(CCC)C(=O)C1=Cc2ccc(-c3ccc(C(=O)N4CCCC4)cc3)cc2N=C(N)C1 [ND-88] | – | – | – | 1.72 | > 25 | > 25 | EC50 [2, 8]: 0.72 µM
O=C(Nc1ccc(N2CCN(C(=O)c3cccs3)CC2)cc1)c1ccc(OCc2ccc(OC(F)(F)F)cc2)cc1 [NA-34] | 4.42 | – | > 25 | – | – | – | EC50 [1, 6]: 6.38 µM; CC50 ([4]; Human Reporter Cell Line): > 25 µM
O=C(Nc1ccc(N2CCN(C(=O)c3cccs3)CC2)cc1)c1ccc(-c2ccccc2)cc1 [NA-19] | 1.02 | – | > 25 | – | – | – | EC50 [1, 6]: 1.47 µM; CC50 ([4]; Human Reporter Cell Line): 8.49 µM
COc1ccc(C(=O)Nc2ccc(N3CCN(C(=O)c4cccs4)CC3)cc2)c2ccccc12 [NA-15] | 5.89 | – | > 25 | – | – | – | EC50 [2, 7]: 1.63 µM; CC50 ([4]; Human Reporter Cell Line): > 25 µM

Further lines, with some results ahead:

EC50 [3, 6] [µM] | EC50 ([3]; Human Reporter Cell Line THP1) [µM] | Structure (SMILES) | CC50 (J774-Dual cytotoxicity; Mouse Reporter Cell Line) [µM] | EC50 ([1]; Human Reporter Cell Line THP1) [µM] | CC50 (J774-Dual cytotoxicity; Mouse Reporter Cell Line J774) [µM] | CC50 ([4]; Human Reporter Cell Line THP1) [µM] | other results
– | 5.39 | COc1ccc(C(=O)Nc2ccc(O)c(-c3nc4ccccc4s3)c2)cc1[N+](=O)[O-] [ND-65] | – | 12 | > 25 | > 25 | –
– | 0.401 | COc1ccc(-c2nc3ccccc3s2)cc1NC(=O)c1ccc([N+](=O)[O-])cc1Cl [ND-67] | – | ~12.3 | > 25 | 8.87 | –
– | 4.76 | Cc1ccc(C(=O)Nc2cc(-c3nc4ccccc4s3)ccc2C)cc1Cl [ND-70] | – | ~4.33 | > 25 | 17.4 | –
– | ~0.496 | COc1ccc(C(=O)Nc2cc(-c3nc4ccccc4s3)ccc2Cl)cc1[N+](=O)[O-] [ND-89] | – | 10.6 | > 25 | > 25 | –
